One test deals with HER2YVMA (Homo sapiens, UniProt P04626, INS775YVMA). Briefly: HER2 signaling (pHER2) in BEAS2B-HER2YVMA cells. On the set-up: expressed in transfected cells; host or cells: HEK293 (pool), Ba/F3 (clones), BEAS2B (clones); lentiviral vector pCDH-CMV-MCS-EF1-Neo. As to conditions: read-out: BEAS2B YVMA pHER2 EC50. The class given is cell-based. On the procedure: Cell culture, plasmid cloning, and lentiviral transduction were carried out according to standard procedures. The Human HER2 cDNA construct in pCMV6-Entry for the HER2 wildtype (WT) expression was obtained from Origene. The HER2 cDNA including the 12-nucleotide insertion corresponding to YVMA insertion (HER2YVMA) was codon optimized, synthesized and cloned by GenScript (Piscataway, NJ) in pcDNA3.1. The lentiviral constructs expressing HER2YVMA and HER2 WT were sub-cloned using PCR at System Biosciences (SBI, Mountainview, CA) into lentiviral vectors pCDH-CMV-MCS-EF1-Neo and lentiviral particles were generated.
Chain of HER2YVMA (P04626 with tags, fused parts or gaps INS775YVMA): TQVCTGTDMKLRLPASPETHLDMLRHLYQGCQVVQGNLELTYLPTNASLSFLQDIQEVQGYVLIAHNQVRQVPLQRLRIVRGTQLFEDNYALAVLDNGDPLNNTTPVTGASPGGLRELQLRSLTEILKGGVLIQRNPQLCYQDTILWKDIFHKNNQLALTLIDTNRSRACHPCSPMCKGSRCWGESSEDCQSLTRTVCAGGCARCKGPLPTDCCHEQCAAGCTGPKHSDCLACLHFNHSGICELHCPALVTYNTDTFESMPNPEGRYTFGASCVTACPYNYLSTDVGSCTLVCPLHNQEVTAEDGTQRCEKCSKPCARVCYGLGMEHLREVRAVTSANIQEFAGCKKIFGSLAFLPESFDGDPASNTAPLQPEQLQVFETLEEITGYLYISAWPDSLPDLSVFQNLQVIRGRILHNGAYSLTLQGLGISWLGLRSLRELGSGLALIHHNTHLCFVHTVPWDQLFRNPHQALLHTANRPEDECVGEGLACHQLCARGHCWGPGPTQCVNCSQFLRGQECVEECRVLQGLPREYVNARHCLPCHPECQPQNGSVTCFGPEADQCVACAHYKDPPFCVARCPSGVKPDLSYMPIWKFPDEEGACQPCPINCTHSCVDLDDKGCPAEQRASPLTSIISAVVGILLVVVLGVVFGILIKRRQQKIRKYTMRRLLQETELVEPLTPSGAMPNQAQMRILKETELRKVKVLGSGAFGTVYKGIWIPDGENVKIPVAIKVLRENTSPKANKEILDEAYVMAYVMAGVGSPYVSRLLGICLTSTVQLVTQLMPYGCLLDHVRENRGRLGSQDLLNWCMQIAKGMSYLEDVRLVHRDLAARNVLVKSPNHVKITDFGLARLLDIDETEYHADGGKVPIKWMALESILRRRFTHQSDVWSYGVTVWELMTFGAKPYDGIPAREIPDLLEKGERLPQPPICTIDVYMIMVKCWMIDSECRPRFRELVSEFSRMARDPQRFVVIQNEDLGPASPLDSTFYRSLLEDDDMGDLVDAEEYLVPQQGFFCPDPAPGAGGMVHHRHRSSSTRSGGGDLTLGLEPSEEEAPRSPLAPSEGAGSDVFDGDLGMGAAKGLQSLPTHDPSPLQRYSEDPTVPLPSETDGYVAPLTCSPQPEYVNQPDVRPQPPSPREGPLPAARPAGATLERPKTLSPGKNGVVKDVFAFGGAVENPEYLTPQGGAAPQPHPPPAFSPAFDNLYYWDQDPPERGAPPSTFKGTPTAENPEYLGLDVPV
Engineered lines expressing HER2YVMA and HER2 WT were prepared in HEK293 (human embryonic kidney cells), Ba/F3 (Interleukin 3 (IL3)-dependent murine pro B cell line), and BEAS2B (primary immortalized human bronchial epithelial cell line). […]
HER2 signaling was assessed in BT474 and N87 cell lines which endogenously overexpress the HER2 wildtype (WT) protein, in NCI-H1781 cells which endogenously expresses a HER2 mutant protein containing a VC insertion in the kinase domain (HER2VC or G776delinsVC), and in engineered cell lines transduced to express the Her2 mutant protein containing the YVMA insertion (Hek293-HER2YVMA and BEAS2B-HER2YVMA). […]
HER2 signaling was evaluated using phospho (Tyr1248)/total ErbB2 whole cell lysate MSD plates (Meso-Scale Discovery, Gaithersburg, MD). […]

The next test concerns the target T1, HER2 (Homo sapiens, UniProt P04626).
T1 construct: BT474 and N87 cell lines which endogenously overexpress the HER2 wildtype (WT) protein; endogenous in cells; host or cells: BT474, N87
The experiment in a line: HER2 occupancy assay in BT474 cells. The class given is cell-based. Conditions: concentration at which 50% of HER2 is irreversible bound, read-out: BT474 HER2 Occ. On the procedure:
In order to assess free HER2 protein, a biotinylated probe was utilized. BT474, N87, and Ba/F3-HER2YVMA cells were treated with test compound as described for HER2 signaling. After compound treatment, cells were washed three times with cold phosphate buffer saline (PBS, Life Technologies, Carlsbad, CA), and lysed in modified occupancy lysis buffer prepared with an irreversible biotinylated tool compound (1 μM) in 25 mM Tris pH 7.5, 150 mM NaCl, 1% Triton, and supplemented with cOmplete, EDTA-free Protease inhibitor cocktail (Roche), Phosphatase Inhibitor Cocktails 2 and 3 (Sigma-Aldrich), and 1 mM PMSF (Sigma-Aldrich).
To determine % occupancy, lysates were loaded into duplicate plates of the phospho (Tyr1248)/total ErbB2 whole cell lysate MSD kit (Meso-Scale Discovery) and incubated overnight. Plates were washed and incubation with either HER2-sulfoTag (1:50, Meso Scale Discovery) or Strep-Sulfo Tag (1:1000, Meso Scale Discovery), for detection of […]. A standard curve of untreated cells in serial dilution was included in each plate to independently fit streptavidin (Free HER2) and total HER2 MSD signals; non-specific signal (BSA control spots) was subtracted from each well. Free HER2 was then normalized by total HER2 for each sample. The results are reported as % DMSO control. The normalized data was fitted using a sigmoidal curve analysis program (Graph Pad Prism version 6) with variable Hill slope to determine EC50 values. The results are provided in Table 4, under columns titled “BT474-HER2 Occ”, “N87-HER2 Occ”, and “Ba/F3 YVMA-HER2 Occ”. HER2 Occ is the concentration of test compound at which 50% of HER2 is irreversible bound.

Our source for the EC50 values is US20240391931A1 (Bristol-Myers Squibb Company, priority 2021, published 2024).

T1 sequence (P04626 23-1255): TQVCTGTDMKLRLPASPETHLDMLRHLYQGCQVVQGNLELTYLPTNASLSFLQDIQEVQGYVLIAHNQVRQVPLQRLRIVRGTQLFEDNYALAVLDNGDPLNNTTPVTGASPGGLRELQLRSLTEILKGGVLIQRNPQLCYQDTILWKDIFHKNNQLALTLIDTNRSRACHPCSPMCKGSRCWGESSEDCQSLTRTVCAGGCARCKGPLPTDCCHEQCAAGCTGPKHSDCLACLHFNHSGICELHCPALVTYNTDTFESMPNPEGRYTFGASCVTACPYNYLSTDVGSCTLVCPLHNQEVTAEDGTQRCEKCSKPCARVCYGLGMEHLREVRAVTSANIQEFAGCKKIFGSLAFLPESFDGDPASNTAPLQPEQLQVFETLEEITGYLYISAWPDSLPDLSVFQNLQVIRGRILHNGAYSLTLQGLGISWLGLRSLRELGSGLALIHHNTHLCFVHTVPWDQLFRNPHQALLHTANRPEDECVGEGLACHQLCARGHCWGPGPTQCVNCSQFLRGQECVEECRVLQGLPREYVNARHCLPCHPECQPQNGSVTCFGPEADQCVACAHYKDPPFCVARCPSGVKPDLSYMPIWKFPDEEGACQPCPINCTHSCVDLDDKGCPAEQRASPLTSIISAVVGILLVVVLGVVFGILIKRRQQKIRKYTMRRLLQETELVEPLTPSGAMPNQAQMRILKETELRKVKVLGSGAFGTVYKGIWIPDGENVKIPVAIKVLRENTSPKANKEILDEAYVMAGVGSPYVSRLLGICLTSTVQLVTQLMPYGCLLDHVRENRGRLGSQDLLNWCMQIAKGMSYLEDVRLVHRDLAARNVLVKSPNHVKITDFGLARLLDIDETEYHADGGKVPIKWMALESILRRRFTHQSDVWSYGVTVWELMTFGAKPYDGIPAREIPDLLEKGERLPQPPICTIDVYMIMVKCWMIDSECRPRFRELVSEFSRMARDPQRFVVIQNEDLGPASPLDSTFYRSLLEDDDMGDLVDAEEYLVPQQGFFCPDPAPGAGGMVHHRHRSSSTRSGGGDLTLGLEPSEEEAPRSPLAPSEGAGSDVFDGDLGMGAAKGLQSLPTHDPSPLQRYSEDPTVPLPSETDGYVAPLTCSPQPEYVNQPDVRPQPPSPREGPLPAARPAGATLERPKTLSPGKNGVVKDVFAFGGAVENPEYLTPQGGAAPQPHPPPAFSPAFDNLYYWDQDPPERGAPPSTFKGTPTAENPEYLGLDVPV

As to `COc1ccc(Oc2ccc(Nc3ncnc4sc5c(c34)CCN(C(=O)/C=C/CN(C)C)C5)cc2C)cn1` [Compound 95, (E)-4-(Dimethylamino)-1-(4-((4-((6-methoxypyridin-3-yl)oxy)-3-methylphenyl)amino)-5,6-dihydropyrido[4′,3′:4,5]thieno[2,3-d]pyrimidin-7(8H)-yl)but-2-en-1-one], the EC50 on HER2YVMA was less than 100 nM. For `CN(C)C/C=C/C(=O)N1CCc2c(sc3ncnc(Nc4ccc(Oc5ccc6ncnn6c5)c(Cl)c4)c23)C1` [Compound 5, (E)-1-(4-((4-([1,2,4]triazolo[1,5-a]pyridin-6-yloxy)-3-chlorophenyl)amino)-5,8-dihydropyrido[4′,3′:4,5]thieno[2,3-d]pyrimidin-7(6H)-yl)-4-(dimethylamino)but-2-en-1-one], the EC50 at HER2 is less than 100 nM.
